Source: patent US8309598B2, “Cooling compounds” (Givaudan S.A., priority 2007, dated 2012)

Key:
Format in all cases: in vivo
[1] = Tasting of a dilute solution in de-ionized water against water as control
Description: A 0.1% w/w solution of 5-(4H-benzo[d][1,3]oxathiin-2-yl)-2-methoxyphenol was prepared in ethanol and diluted, with good mixing, into de-ionized water: thereby, generating a 1 ppm solution of 5-(4H-benzo[d][1,3]oxathiin-2-yl)-2-methoxyphenol in water. This solution was tasted using de-ionized water as the control.
A 20 ppm solution of 5-(4H-benzo[d][1,3]oxathiin-2-yl)-2,3-dimethoxyphenol (0.1% w/w in EtOH) was prepared in de-ionized water. The resulting solution was evaluated against de-ionized water as the control.
One gram of a 1000 ppm solution of 2-(4-methoxyphenyl)-4H-benzo[d][1,3]oxathiine in EtOH was added to 99 grams of water generating a 10 ppm taste solution. This solution was tasted relative to water.
One gram of a 1000 ppm solution of 4-(4H-benzo[d][1,3]oxathiin-2-yl)phenol in EtOH was added to 99 grams of water generating a 10 ppm taste solution. This solution was tasted relative to water.

[2] = Tasting in sugar/lemon flavor water against control without compound; settings: 1 gram of 1000 ppm EtOH solution with 5 g sugar, 1 gram 1% lemon flavor, 93 grams water
Description: Five grams of sugar, 1 gram of a 1% solution of lemon flavor in EtOH and 1 gram of a 1000 ppm solution of 2-(4-methoxyphenyl)-4H-benzo[d][1,3]oxathiine in EtOH were added to 93 grams water. The resulting solution was tasted relative to a control made up of 5 g sugar, 1 gram lemon flavor and 94 g water.
Five grams of sugar, 1 gram of a 1% solution of lemon flavor in EtOH and 1 gram of a 1000 ppm solution of 4-(4H-benzo[d][1,3]oxathiin-2-yl)phenol in EtOH were added to 93 grams water. The resulting solution was tasted relative to a control made up of 5 g sugar, 1 gram lemon flavor and 94 g water.

[3] = Tasting in banana-flavored thawed vanilla ice cream against control without compound; settings: 0.02 g of a 1% EtOH solution with 0.02 g banana flavor in 99.96 g thawed vanilla ice cream
Description: Vanilla ice cream was thawed in the microwave for 20 seconds. Next, 0.02 g of N&A banana ice cream flavor and 0.02 g of a 1% solution of 5-(4H-benzo[d][1,3]oxathiin-2-yl)-2-ethoxyphenol in EtOH were added to 99.96 g of the thawed vanilla ice cream. The resulting mixture was mixed well with a spoon and tasted relative to the control, which was made up of 0.02 g of the N&A banana flavor in 99.98 g of the thawed vanilla ice cream.

[4] = Tasting in sweetened lime-flavored beverage against control without compound; settings: 0.07% w/w of a 1.0% w/w EtOH solution in lime beverage (10% fruit sugar, citric acid)
Description: Granulated fruit sugar, 10% w/w, 0.25% w/W of citric acid, 0.24% w/w of FD&C yellow #5 (0.1% w/w in water), 0.24% of FD&C blue #1 (0.01% w/w in water), 0.1% w/w 15 fold lime oil (1.0% w/w in EtOH), 0.03% w/v of sodium citrate and 0.07% w/w of 5-(4H-benzo[d][1,3]oxathiin-2-yl)-2,3-dimethoxyphenol (1.0% w/w in EtOH) were added to 89.07% w/v of de-ionized water. The control was prepared by eliminating 5-(4H-benzo[d][1,3]oxathiin-2-yl)-2,3-dimethoxyphenol and increasing the water content to 89.14%.

[5] = Tasting in CoolMint Listerine against CoolMint Listerine as control; settings: 0.08% w/w of a 1.0% w/w EtOH solution in 99.92% w/w CoolMint Listerine
Description: A 0.08% w/w sample of 5-(4H-benzo[d][1,3]oxathiin-2-yl)-2,3-dimethoxyphenol (1.0% w/w in EtOH) was added to 99.92% w/w CoolMint Listerine™ and the contents were mixed well. The resulting mixture was tasted using CoolMint Listerine™ as the control.

[6] = Tasting in cantaloupe-flavored taffy against control without compound; settings: 0.14% w/w of a 0.1% w/v EtOH solution in cantaloupe-flavored taffy with malic acid
Description: A desired quantity of taffy was chipped off using hammer and chisel and melted in the microwave for 5-30 seconds depending on batch size. Next, 1.2% w/w of a cantaloupe flavor (Givaudan) was added to 98.26% w/w sample of the taffy followed by 0.4% w/w of granular malic acid and 0.14% w/w of 5-(4H-benzo[d][1,3]oxathiin-2-yl)-2-methoxyphenol (0.1% w/v in EtOH). The control sample was produced the same by increasing the taffy base to make up for the absence of 5-(4H-benzo[d][1,3]oxathiin-2-yl)-2-methoxyphenol in the formula. In both the control and the experimental sample, the contents were well mixed by hand while wearing gloves. The taffy was shaped into individual portions and covered in an airtight container overnight.

[7] = Tasting in pistachio-flavored sweetened milk against control without compound; settings: 0.8 ppm sample in pistachio-flavored sweetened milk
Description: A pistachio-flavored sweetened milk was prepared using 87.52% by weight of 2% reduced fat milk, 10% by weight of granulated fruit sugar, 1.4% w/w of FD&C Blue #1 (0.01% w/w in water), 0.8% w/w of FD&C yellow #5 (0.1% w/w in water). 0.2% w/w of natural pistachio flavor (Givaudan) and 0.08% of a 0.10% w/w solution of 5-(4H-benzo[d][1,3]oxathiin-2-yl)-2-methoxyphenol in ethanol generating a 0.8 ppm sample. The control was prepared the same by increasing the milk to 87.6% and leaving out 5-(4H-benzo[d][1,3]oxathiin-2-yl)-2-methoxyphenol.

[8] = Tasting in almond-flavored 2% milk against control without compound; settings: 0.01 g of a 1% EtOH solution with 0.01 g natural almond flavor in 99.98 g of 2% milk
Description: Natural almond flavor 0.01 g and 0.01 g of a 1% solution of 4-(4H-benzo[d][1,3]oxathiin-2-yl)benzonitrile in EtOH were added to 99.98 g of 2% milk and the contents were mixed well. This solution was tasted relative to the control, which was made up of 0.01 g of natural almond flavor and 99.99 g of 2% milk.

[9] = 10 ppm taste solution in water, tasted relative to water

Q: Which results are given for `Oc1ccc(C2OCc3ccccc3S2)cc1` (stereo not drawn) [Example 4, 4-(4H-benzo[d][1,3]oxathiin-2-yl)phenol]?
A: Comments on flavor properties [1, 9]: slightly sweet and slightly alliaceous; Comments on flavor modification [2]: cooling, dirty, sweeter, lemon peel, nutty and bitter

Q: With `CCOc1ccc(C2OCc3ccccc3S2)cc1O` (stereo not drawn) [Example 1, 5-(4H-benzo[d][1,3]oxathiin-2-yl)-2-ethoxyphenol] as the molecule, how does the “Comments on flavor modification” value [3] read?
A: enhances flavor, makes the banana riper, increases creaminess, sweeter and cooling

Q: With `COc1ccc(C2OCc3ccccc3S2)cc1` (stereo not drawn) [2-(4-methoxyphenyl)-4H-benzo[d][1,3]oxathiine] as the molecule, how does the “Comments on flavor properties” value [1, 9] read?
A: cooling, slightly anisic, lingering cooling

Q: What about the “Comments on flavor modification” value [2] of the same molecule?
A: cooling, anise, sweeter, bitter peel, more acidic, tingle, lingering flavor, better aroma and refreshing

Q: What does the source list for `COc1cc(C2OCc3ccccc3S2)cc(O)c1OC` (stereo not drawn) [Example 2, 5-(4H-benzo[d][1,3]oxathiin-2-yl)-2,3-dimethoxyphenol]?
A: Comments on flavor properties ([1]; 20 ppm solution in de-ionized water, control de-ionized water): cooling, sweet, burns tongue, lingering sweetness, bitter and lingering cooling; Comments on flavor modification [4]: sweet, cooling, astringent, juicy, mouth-watering and tart/bite; Comments on flavor modification [5]: retronasal burn, cooling enhancement, intensifies flavor, increased eucalyptus, slow onset then strong burn, sweet and alcohol enhancement

Q: Which results are given for `COc1ccc(C2OCc3ccccc3S2)cc1O` (stereo not drawn) [5-(4H-benzo[d][1,3]oxathiin-2-yl)-2-methoxyphenol]?
A: Comments on flavor modification [6]: sweeter, cooling, enhanced sourness, salivating, aroma enhancement and increased impact; Comments on flavor properties relative to the control ([1]; 1 ppm solution in water, control de-ionized water): sweet, cooling and lingering; Comments on flavor modification [7]: enhanced flavor impact, sweeter, cooling, enhanced creaminess, enhanced nutty character, sour aftertaste and brighter

Q: For `N#Cc1ccc(C2OCc3ccccc3S2)cc1` (stereo not drawn) [Example 3, 4-(4H-benzo[d][1,3]oxathiin-2-yl)benzonitrile], which “Comments on flavor modification” value [8] is on record?
A: stronger flavor, more toasted note, earthy note, more authentic, cooling, bitter almond like, sweeter, more nutty and nut skin
